Consider three compounds from patent publication US20120245031A1, “Pesticidal Mixtures” (BASF SE, priority 2009, published 2012).

Common to all, as to assay type: in vivo
For test [1], the system named is wheat plants of the imidazolinone tolerant variety ‘BW755’. The experiment in a line: Transpiration (water loss) of cut wheat plants as indicator of drought tolerance, fluxapyroxad / imazethapyr (Example 3). The conditions noted are these: for Mean water loss / Observed efficacy: solo; for Mean water loss: 24 h; for Observed efficacy: decrease of water loss vs control. As to the method: (§1) The transpiration as an indicatior of drought tolerance of wheat plants treated or not treated with fluxapyroxad solo, imazethapyr solo, and mixtures thereof was assessed. 10 to 14 days old wheat plants were cut above the ground and placed into Eppendorf caps containing 2.2 ml of the test solution. The wheat plants were incubated for 24 h at 25° C. and 50% relative humidity in a growth chamber. The weight of the Eppendorf cap including the test solution but excluding the leaves was assessed before and after incubation. The difference in weight was recorded as the loss of water through transpiration. This assay is generally used to asses the drought tolerance of plants.
In the present example wheat plants of the imidazolinone tolerant variety ‘BW755’ were grown at 18° C. for 10 days in the greenhouse prior to the treatment and the incubation. 10 plants per treatment were treated and incubated as described. Fluxapyroxad and imazethapyr were dissolved in 0.5% DMSO. The 0.5% DMSO solution consisted of 0.5% DMSO dissolved in water. The tested concentrations are as described in table 4. Control plants were treated with the blank 0.5% DMSO solution only.
The efficacy of the tested compounds and mixtures was calculated as % of water loss compared to the control: […]
(§2) a corresponds to water loss of plants after incubation in the treated plants in g and b corresponds to water loss of plants after incubation in the control in g.

The subject of test [2] is potted imidazolinone tolerant wheat, variety ‘BW755’. The experiment in a line: Greenhouse pot trial, total shoot biomass (dry weight) of wheat, fluxapyroxad / imazethapyr (Example 4). The note with it: solo; for Shoot dry weight: 7 days after the last treatment; for Observed efficacy: increase of biomass vs untreated control. As to the method: (§3) Wheat was grown in 2010 in the greenhouse at the agricultural center at Limburgerhof, Germany. The imidazolinone tolerant variety ‘BW755’ was planted in pots. The trial was setup with 8 replications with one pot 10 plants each per replication.
The active ingredients were used as formulations. The formulations were used in the product rates given below and in table 6. The products were applied in a total spray volume of 375 l/ha. Products were diluted in water. The spray solution was applied in a spray cabinet using a spray boom with flat fan nozzles.
Imazethapyr was applied once as PIVOT 100 SL™ (100 g active per liter soluble concentrate) when the wheat plants had the first leaf fully developed (BBCH 11). Fluxapyroxd was applied once as an experimental emulsion concentrate (62.5 g active ingredient per liter) when 2 to 3 leaves were fully developed (BBCH 12/13). The application of the mixture was applied as a sequence of PIVOT 100 SL™ at the stage when the first leave had developed and while the fluxapyroxad formulation was applied when 2-3 leaves had developed.
Total shoot biomass was assessed (table 6) by harvesting all plants of a pot 7 days after the last treatment (expressed as g per pot). Dry weight of total shoot biomass per pot was evaluated. After measuring fresh weight, the samples were dried in a drying cabinet at 65° C. for two days. The efficacy was calculated as % increase of biomass in the treatments compared to the untreated control:
(§4) a corresponds to the biomass of the treated plants in g/pot and b corresponds to the biomass of the untreated (control) plants in g/pot

For test [3], the system named is wheat plants of the imidazolinone tolerant variety ‘BW755’. The experiment in a line: Transpiration (water loss) of cut wheat plants as indicator for drought tolerance, fluxapyroxad / imazamox (Example 1). The conditions noted are these: solo; for Mean water loss: 24 h at 25° C.; for Observed efficacy: decrease of water loss vs control, 24 h. As to the method:
as §1, with “transpiration” for “transpiration as an indicatior of drought tolerance”, “solo, imazamox” for “solo, imazethapyr”, “was assessed as an indicator for drought tolerance.” for “was assessed.”, “the plant” for “the leaves”, “weight is” for “weight was”, “assay can be” for “assay is generally”
In the present example wheat plants of the imidazolinone tolerant variety ‘BW755’ were grown at 18° C. for 10 days in the greenhouse prior to the treatment and the incubation. 10 plants per treatment were treated and incubated as described. Fluxapyroxad and imazamox were dissolved in 0.5% DMSO. The 0.5% DMSO solution consisted of 0.5% DMSO dissolved in water. The tested concentrations are described in table 2. Control plants were treated with the blank 0.5% DMSO solution only.
The efficacy of the tested compounds and respective mixtures was calculated as % of water loss compared to the control: […]
as §2

For test [4], the system named is potted imidazolinone tolerant wheat, variety ‘BW755’. The experiment in a line: Greenhouse pot trial, total shoot biomass (dry weight) of wheat, fluxapyroxad / imazamox (Example 2). The conditions noted are these: solo; for Shoot dry weight: 7 days following the last treatment; for Observed efficacy: increase of biomass vs untreated control. On the procedure: as §3
The active ingredients were used as formulations. The formulations were used in the product rates given below and in table 3. The products were applied in a total spray volume of 375 l/ha. Products were diluted in water. The spray solution was applied in a spray cabinet using a spray boom with flat fan nozzles.
Imazamox was applied once as Raptor™ (120 g active per liter soluble concentrate) when the wheat plants had the first leaf fully developed (BBCH 11). Fluxapyroxd was applied once as an experimental emulsion concentrate (62.5 g active ingredient per liter) at 2 to 3 leaves fully developed (BBCH 12/13). The application of the mixture was carried out as a sequence, wherein Raptor™ was applied when the first leave had developed while the fluxapyroxad formulation was applied when 2-3 leaves had developed.
Total shoot biomass was assessed (table 3) by harvesting all plants of a pot 7 days following the last treatment (expressed as g per pot). Afterwards, dry weight of total shoot biomass per pot was evaluated. After measuring fresh weight, the samples were dried in a drying cabinet at 65° C. for two days. The efficacy was calculated as % increase of biomass in the treatments compared to the untreated control:
as §4

[5] abbreviates: 10 ppm, first experiment (table 4).
Setting [6] is: 10 ppm, repeated experiment (table 5).
The mark [7] stands for this setting: 50 ppm, first experiment (table 4).
Setting [8] is: 100 ppm, first experiment (table 4).
Where [9] appears, read: 100 ppm, repeated experiment (table 5).
Setting [10] is: 1 ppm, first experiment (table 4).
The mark [11] stands for this setting: 500 ppm, first experiment (table 4).

Structures are written as SMILES.

Take `Cn1cc(C(=O)Nc2ccccc2-c2cc(F)c(F)c(F)c2)c(C(F)F)n1` [Fluxapyroxad, N-(3′,4′,5′-trifluorobiphenyl-2-yl)-3-difluoromethyl-1-methyl-1H-pyrazole-4-carboxamide]: the Mean water loss in test [1] (setting [5]) is 0.853 g; in test [1] (setting [6]) it was 1.266 g; in test [1] (setting [7]) it was 0.728 g; in test [1] (setting [8]), 0.647 g; in test [1] (setting [9]), 0.628 g; in test [3] (50 ppm), 0.794 g. Also, the Observed efficacy in test [1] (setting [5]) is given as 14.59%; in test [1] (setting [6]), 10.46%; in test [1] (setting [7]) it was 27.16%; in test [1] (setting [8]), 35.22%; in test [1] (setting [9]), 55.60%; in test [2] (10 g/ha), −4.75%. Also, the Observed efficacy was −7.88% in test [2] (50 g/ha); −3.16% in test [2] (100 g/ha); 17.68% in test [3] (50 ppm); “about 18%” in test [3] (50 ppm, listed as fluxapyroxad); 3.80% in test [4] (10.00 g/ha); 1.41% in test [4] (50.00 g/ha). Further, the Observed efficacy in test [4] (100.00 g/ha) is given as 1.30%. Besides, the Shoot dry weight in test [2] (10 g/ha) came out at 0.638 g/pot; in test [2] (50 g/ha) it was 0.617 g/pot; in test [2] (100 g/ha), 0.649 g/pot; in test [4] (10.00 g/ha) it was 0.619 g/pot; in test [4] (50.00 g/ha) it was 0.604 g/pot; in test [4] (100.00 g/ha), 0.604 g/pot.

For `CCc1cnc(C2=NC(C)(C(C)C)C(=O)N2)c(C(=O)O)c1` (stereo not shown) [Imazethapyr, imazethapyr], the Mean water loss in test [1] (setting [10]) came to 1.249 g; in test [1] (setting [6]), 1.435 g; in test [1] (setting [11]), 0.878 g. The Observed efficacy is given as −25.04% in test [1] (setting [10]); −1.52% in test [1] (setting [6]); 12.12% in test [1] (setting [11]); −0.72% in test [2] (17.5 g/ha); −9.07% in test [2] (35 g/ha). In addition, the “effect on water loss, in words” value in test [1] (alone at 10 ppm, second experiment, table 5) was “tended to be neutral”. In addition, the “reduction of dry biomass” value in test [2] (17.5 g imazethapyr per ha) is listed as “about 1%”; in test [2] (35 g imazethapyr per ha), “about 9%”. The Shoot dry weight was found to be 0.665 g/pot in test [2] (17.5 g/ha) and 0.609 g/pot in test [2] (35 g/ha).

`COCc1cnc(C2=NC(C)(C(C)C)C(=O)N2)c(C(=O)O)c1` (stereo not shown) [Imazamox, imazamox]: the Mean water loss in test [3] (50 ppm) is 0.907 g; in test [3] (100 ppm) it was 0.855 g; in test [3] (150 ppm), 1.001 g. For the same compound, the Observed efficacy is 5.92% in test [3] (50 ppm); 11.32% in test [3] (100 ppm); −3.88% in test [3] (150 ppm); 5.83% in test [4] (8.75 g/ha); “about 6%” in test [4] (8.75 g/ha, listed as imazamox); −6.29% in test [4] (17.50 g/ha). In addition, in test [4] (35.00 g/ha), the Observed efficacy is given as −13.93%. Further, the Shoot dry weight in test [4] (8.75 g/ha) is given as 0.631 g/pot; in test [4] (17.50 g/ha) it was 0.559 g/pot; in test [4] (35.00 g/ha) it was 0.513 g/pot. For the same compound, the “reduction of dry biomass” value in test [4] (35 g imazamox per ha) was “about 14%”.
